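Grown in 96-well plates, cells were treated for 48 hours with each compound at five concentrations. Insufficient inhibition: endpoint recorded as highest concentration tested. GI50 is the concentration that inhibits growth by half. The concentration for full growth arrest is given as TGI.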
Key:
Experiment in all cases: NCI tumour cell line growth inhibition, 48 h
OVCAR-3 ovarian = test system: OVCAR-3 ovarian
NCI-H460 lung = test system: NCI-H460 lung
K-562 leukemia = test system: K-562 leukemia
COLO 205 colon = test system: COLO 205 colon
MALME-3M melanoma = test system: MALME-3M melanoma
SK-MEL-2 melanoma = test system: SK-MEL-2 melanoma
SF-539 CNS = test system: SF-539 CNS
SR leukemia = test system: SR leukemia
SK-OV-3 ovarian = test system: SK-OV-3 ovarian
PC-3 prostate = test system: PC-3 prostate
SK-MEL-28 melanoma = test system: SK-MEL-28 melanoma
A549 NSCLC = test system: A549 NSCLC
TK-10 renal = test system: TK-10 renal
HCT-15 colon = test system: HCT-15 colon
EKVX NSCLC = test system: EKVX NSCLC
UACC-257 melanoma = test system: UACC-257 melanoma
ACHN renal = test system: ACHN renal
T-47D breast = test system: T-47D breast
UO-31 renal = test system: UO-31 renal
HOP-92 NSCLC = test system: HOP-92 NSCLC
RPMI-8226 leukemia = test system: RPMI-8226 leukemia
MCF7 breast = test system: MCF7 breast
SK-MEL-5 melanoma = test system: SK-MEL-5 melanoma
NCI-H522 lung = test system: NCI-H522 lung
HCT-116 colon = test system: HCT-116 colon
SW-620 colon = test system: SW-620 colon
BT-549 breast = test system: BT-549 breast
SNB-75 CNS = test system: SNB-75 CNS
IGROV1 ovarian = test system: IGROV1 ovarian
LOX IMVI melanoma = test system: LOX IMVI melanoma
HOP-62 NSCLC = test system: HOP-62 NSCLC
M14 melanoma = test system: M14 melanoma
SN12C renal = test system: SN12C renal
UACC-62 melanoma = test system: UACC-62 melanoma
SF-268 CNS = test system: SF-268 CNS
HCC-2998 colon = test system: HCC-2998 colon
SNB-19 CNS = test system: SNB-19 CNS
HS 578T breast = test system: HS 578T breast
RXF 393 renal = test system: RXF 393 renal
OVCAR-8 ovarian = test system: OVCAR-8 ovarian
KM12 colon = test system: KM12 colon
NCI-H23 lung = test system: NCI-H23 lung
DU-145 prostate = test system: DU-145 prostate
A498 renal = test system: A498 renal
NCI-H226 lung = test system: NCI-H226 lung
OVCAR-5 ovarian = test system: OVCAR-5 ovarian
U251 CNS = test system: U251 CNS
MDA-MB-435 = test system: MDA-MB-435
OVCAR-4 ovarian = test system: OVCAR-4 ovarian
SF-295 CNS = test system: SF-295 CNS
HT29 colon = test system: HT29 colon
MDA-MB-231 breast = test system: MDA-MB-231 breast
CCRF-CEM leukemia = test system: CCRF-CEM leukemia
NCI/ADR-RES ovarian = test system: NCI/ADR-RES ovarian

## Cc1cc(N2CCCC2)nc(N(CCNc2ccnc3cc(Cl)ccc23)Cc2ccco2)n1
OVCAR-3 ovarian
  GI50: 3.4 µM
  TGI: 42.3 µM
NCI-H460 lung
  GI50: 2.99 µM
  TGI: > 100 µM
K-562 leukemia
  GI50: 2.26 µM
  TGI: > 100 µM
COLO 205 colon
  GI50: 1.8 µM
  TGI: 4.38 µM
MALME-3M melanoma
  GI50: 4.13 µM
  TGI: 80.7 µM
SK-MEL-2 melanoma
  GI50: 18 µM
  TGI: > 100 µM
SF-539 CNS
  GI50: 3.27 µM
  TGI: 10.4 µM
SR leukemia
  GI50: 1.8 µM
  TGI: 4.67 µM
SK-OV-3 ovarian
  GI50: 7.16 µM
  TGI: 38.8 µM
PC-3 prostate
  GI50: 2.84 µM
  TGI: > 100 µM
SK-MEL-28 melanoma
  GI50: 3.94 µM
  TGI: > 100 µM
A549 NSCLC
  GI50: 5.9 µM
  TGI: > 100 µM
TK-10 renal
  GI50: 5.46 µM
  TGI: 31.3 µM
HCT-15 colon
  GI50: 3.19 µM
  TGI: > 100 µM
EKVX NSCLC
  GI50: 5.7 µM
  TGI: > 100 µM
UACC-257 melanoma
  GI50: 10.8 µM
  TGI: > 100 µM
ACHN renal
  GI50: 6.53 µM
  TGI: > 100 µM
T-47D breast
  GI50: 2.39 µM
  TGI: 6.5 µM
UO-31 renal
  GI50: 2.58 µM
  TGI: 39.8 µM
HOP-92 NSCLC
  GI50: 1.88 µM
  TGI: 13.2 µM
RPMI-8226 leukemia
  GI50: 2.02 µM
  TGI: 4.5 µM
MCF7 breast
  GI50: 2.91 µM
  TGI: > 100 µM
SK-MEL-5 melanoma
  GI50: 1.78 µM
  TGI: 3.28 µM
NCI-H522 lung
  GI50: 3.59 µM
  TGI: > 100 µM
HCT-116 colon
  GI50: 1.91 µM
  TGI: > 100 µM
SW-620 colon
  GI50: 2.6 µM
  TGI: 81.8 µM
BT-549 breast
  GI50: 5.74 µM
  TGI: > 100 µM
SNB-75 CNS
  GI50: 10.7 µM
  TGI: 60.7 µM
IGROV1 ovarian
  GI50: 2.5 µM
  TGI: > 100 µM
LOX IMVI melanoma
  GI50: 2.66 µM
  TGI: 10.4 µM
HOP-62 NSCLC
  GI50: 5.64 µM
  TGI: 30 µM
M14 melanoma
  GI50: 2.93 µM
  TGI: > 100 µM
SN12C renal
  GI50: 3.88 µM
  TGI: > 100 µM
UACC-62 melanoma
  GI50: 4.11 µM
  TGI: 78.2 µM
SF-268 CNS
  GI50: 11.7 µM
  TGI: > 100 µM
HCC-2998 colon
  GI50: 4.58 µM
  TGI: 56.7 µM
SNB-19 CNS
  GI50: 5.67 µM
  TGI: 70.2 µM
HS 578T breast
  GI50: 6.6 µM
  TGI: 69.3 µM
RXF 393 renal
  GI50: 2.14 µM
  TGI: 6.74 µM
OVCAR-8 ovarian
  GI50: 4.35 µM
  TGI: > 100 µM
KM12 colon
  GI50: 3.86 µM
  TGI: > 100 µM
NCI-H23 lung
  GI50: 2.75 µM
  TGI: > 100 µM
DU-145 prostate
  GI50: 6.72 µM
  TGI: > 100 µM
A498 renal
  GI50: 1.92 µM
  TGI: 7.79 µM
NCI-H226 lung
  GI50: 3.2 µM
  TGI: > 100 µM
OVCAR-5 ovarian
  GI50: 4.93 µM
  TGI: > 100 µM
U251 CNS
  GI50: 3.15 µM
  TGI: 21.4 µM
MDA-MB-435
  GI50: 3.33 µM
  TGI: > 100 µM
OVCAR-4 ovarian
  GI50: 3.22 µM
  TGI: > 100 µM
SF-295 CNS
  GI50: 2.07 µM
  TGI: 16.1 µM
HT29 colon
  GI50: 1.68 µM
  TGI: > 100 µM
MDA-MB-231 breast
  GI50: 3.14 µM
  TGI: 23.7 µM
CCRF-CEM leukemia
  GI50: 2.85 µM
  TGI: > 100 µM
NCI/ADR-RES ovarian
  GI50: 2.99 µM
  TGI: 79.6 µM
